In brackets after ≈: the same amount, converted by molar mass. Like-named read-outs stand apart in the source and are kept apart here.
Legend:
[1] = system: Pasteurella multocida 17E; assay: MIC, broth-dilution microtiter test, Pasteurella multocida 17E; type: cell-based; details: Pasteurella multocida 17E, bovine isolate, broth-dilution microtiter
Source text: (§1) The MIC's in Table X were obtained using conventional broth-dilution microtiter tests.

[2] = system: Haemophilus influenzae Holt; assay: MIC, standard agar-dilution assay, Haemophilus influenzae Holt; type: cell-based; details: Haemophilus influenzae Holt, ampicillin-sensitive strain
[3] = system: Staphylococcus aureus X1.1; assay: MIC, standard agar-dilution assay, Staphylococcus aureus X1.1; type: cell-based
Streptococcus Group 9960 = assay: MIC, standard agar-dilution assay, Streptococcus Group 9960; type: cell-based; details: Streptococcus Group 9960, agar dilution
[4] = system: Staphylococcus aureus V41; assay: MIC, standard agar-dilution assay, Staphylococcus aureus V41; type: cell-based
[5] = system: Staphylococcus epidermidis EPI1; assay: MIC, standard agar-dilution assay, Staphylococcus epidermidis EPI1; type: cell-based
[6] = system: Pasteurella hemolytica 22C; assay: MIC, broth-dilution microtiter test, Pasteurella hemolytica 22C; type: cell-based; details: Pasteurella hemolytica 22C, broth-dilution microtiter
Source text: as §1

[7] = system: Staphylococcus aureus X400; assay: MIC, standard agar-dilution assay, Staphylococcus aureus X400; type: cell-based
Streptococcus bovis 80 = assay: MIC, broth-dilution microtiter test, Streptococcus bovis 80; type: cell-based; details: Streptococcus bovis 80, broth-dilution microtiter
Source text: as §1

[8] = system: Haemophilus influenzae R252; assay: MIC, standard agar-dilution assay, Haemophilus influenzae R252; type: cell-based; details: Haemophilus influenzae R252, ampicillin-resistant strain
[9] = system: Streptococcus Group D X66; assay: MIC, standard agar-dilution assay, Streptococcus Group D X66; type: cell-based; details: Streptococcus Group D X66, agar dilution
Mycoplasma hyorhinis = assay: MIC, broth-dilution microtiter test, Mycoplasma hyorhinis; type: cell-based
Source text: as §1

Mycoplasma gallisepticum = assay: MIC, broth-dilution microtiter test, Mycoplasma gallisepticum; type: cell-based
Source text: as §1

Staphylococcus aureus = assay: MIC, broth-dilution microtiter test, Staphylococcus aureus; type: cell-based; details: broth-dilution microtiter
Source text: as §1

[10] = system: Pasteurella multocida 60A; assay: MIC, broth-dilution microtiter test, Pasteurella multocida 60A; type: cell-based; details: Pasteurella multocida 60A, avian isolate, broth-dilution microtiter
Source text: as §1

[11] = system: Streptococcus pyogenes C203; assay: In vivo protection of mice experimentally infected with S. pyogenes C203; details: Streptococcus pyogenes, mice, doses given 1 and 4 hours post-infection
Protocol: The C-20 modified derivatives of this invention have shown in vivo antimicrobial activity against experimentally-induced infections in laboratory animals. When two doses of test compound were administered to mice experimentally infected with S. pyogenes C203, the activity observed was measured as an ED50 value [effective dose in mg/kg to protect 50% of the test animals: see Warren Wick, et al., J. Bacteriol. 81, 233-235 (1961)].

[12] = system: Staphylococcus aureus S13E; assay: MIC, standard agar-dilution assay, Staphylococcus aureus S13E; type: cell-based
[13] = system: Streptococcus pyogenes C203; assay: MIC, standard agar-dilution assay, Streptococcus pyogenes C203; type: cell-based
[14] = system: Staphylococcus epidermidis EPI2; assay: MIC, standard agar-dilution assay, Staphylococcus epidermidis EPI2; type: cell-based; details: Staphylococcus epidermidis EPI2, agar dilution
[15] = system: Streptococcus pneumoniae Park I; assay: microbe, parasite or virus in culture; type: cell-based
[16] = Staphylococcus epidermidis, EPI1
[17] = Staphylococcus aureus X1.1, agar dilution
[18] = Staphylococcus aureus V41, penicillin-resistant strain, agar dilution
[19] = Staphylococcus epidermidis EPI1, agar dilution
[20] = Staphylococcus aureus X400, methicillin-resistant strain, agar dilution
[21] = Streptococcus pneumoniae Park I, agar dilution
[22] = Staphylococcus aureus S13E, agar dilution
[23] = Streptococcus pyogenes C203, agar dilution

## CCC1OC(=O)CC(O)C(C)C(OC2OC(C)C(OC3CC(C)(O)C(O)C(C)O3)C(N(C)C)C2O)C(CCOc2ccccc2)CC(C)C(=O)C=CC(C)=CC1COC1OC(C)C(O)C(OC)C1OC (stereo not shown) [Compound 4, 20-DH-20-O-Phenyltylosin]
[1]; read-out: MIC
  MIC: > 50 µg/mL
[2]; read-out: MIC
  MIC: > 128 µg/mL
[3]; Staphylococcus aureus, X1.1
  MIC: 1 µg/mL (≈ 1.01 µM)
Streptococcus Group 9960; GROUP9960, read-out: MIC
  MIC: 128 µg/mL (≈ 129 µM)
[4]; Staphylococcus aureus, V41
  MIC: 1 µg/mL (≈ 1.01 µM)
[5]; [16]
  MIC: 1 µg/mL (≈ 1.01 µM)
[6]; read-out: MIC
  MIC: > 50 µg/mL
[7]; Staphylococcus aureus X400, methicillin-resistant strain, agar dilution, read-out: MIC
  MIC: 2 µg/mL (≈ 2.01 µM)
Streptococcus bovis 80; Streptococcus equinus, read-out: MIC
  MIC: 12.5 µg/mL (≈ 12.6 µM)
[8]; read-out: MIC
  MIC: > 128 µg/mL
[9]; read-out: MIC
  MIC: 128 µg/mL (≈ 129 µM)
Mycoplasma hyorhinis; Mycoplasma
  MIC: 50 µg/mL (≈ 50.3 µM)
Mycoplasma gallisepticum; Mycoplasmoides gallisepticum
  MIC: 1.56 µg/mL (≈ 1.57 µM)
Staphylococcus aureus; read-out: MIC
  MIC: 3.12 µg/mL (≈ 3.14 µM)
[10]; read-out: MIC
  MIC: > 50 µg/mL
[11]; C203, sc, subcutaneous, read-out: ED50, Subcutaneous
  ED50: > 6.3 mg/kg
[11]; C203, oral, read-out: ED50, Oral
  ED50: 35 mg/kg
[12]; Staphylococcus aureus, S13E
  MIC: 1 µg/mL (≈ 1.01 µM)
[13]; Streptococcus pyogenes C203, agar dilution, read-out: MIC
  MIC: 2 µg/mL (≈ 2.01 µM)

## CCC1OC(=O)CC(O)C(C)C(OC2OC(C)C(OC3CC(C)(O)C(O)C(C)O3)C(N(C)C)C2O)C(CCOc2ncnc3ccccc23)CC(C)C(=O)C=CC(C)=CC1COC1OC(C)C(O)C(OC)C1OC (stereo not shown) [Compound 19a]
[2]; agar dilution
  MIC: 128 µg/mL (≈ 122 µM)
[3]; [17]
  MIC: 0.5 µg/mL (≈ 0.478 µM)
Streptococcus Group 9960
  MIC: 64 µg/mL (≈ 61.2 µM)
[4]; [18]
  MIC: 0.5 µg/mL (≈ 0.478 µM)
[5]; [19]
  MIC: 1 µg/mL (≈ 0.956 µM)
[7]; [20]
  MIC: 1 µg/mL (≈ 0.956 µM)
[14]
  MIC: 0.5 µg/mL (≈ 0.478 µM)
[8]; agar dilution
  MIC: -- (Not active at 128 mcg/ml, the highest level tested)
[9]
  MIC: 32 µg/mL (≈ 30.6 µM)
[15]; [21]
  MIC: 4 µg/mL (≈ 3.82 µM)
[12]; [22]
  MIC: 0.5 µg/mL (≈ 0.478 µM)
[13]; [23]
  MIC: 4 µg/mL (≈ 3.82 µM)

## CC(=O)O.CC(=O)O.CCC1OC(=O)CC(O)C(C)C(OC2OC(C)C(O)C(N(C)C)C2O)C(CCN)CC(C)C(=O)C=CC(C)=CC1COC1OC(C)C(O)C(OC)C1OC (stereo not shown) [Compound 51b, 20-DH-DO-20-Aminodesmycosin diacetate]
[2]; agar dilution
  MIC: 128 µg/mL
[3]; [17]
  MIC: 4 µg/mL
Streptococcus Group 9960
  MIC: 128 µg/mL
[4]; [18]
  MIC: 4 µg/mL
[5]; [19]
  MIC: 8 µg/mL
[7]; [20]
  MIC: 8 µg/mL
[14]
  MIC: 2 µg/mL
[8]; agar dilution
  MIC: -- (Not active at 128 mcg/ml, the highest level tested)
[9]
  MIC: 128 µg/mL
[15]; [21]
  MIC: 16 µg/mL
[12]; [22]
  MIC: 4 µg/mL

## CCC1OC(=O)CC(O)C(C)C(OC2OC(C)C(OC3CC(C)(O)C(O)C(C)O3)C(N(C)C)C2OC(C)=O)C(CCOc2ccccc2)CC(C)C(=O)C=CC(C)=CC1COC1OC(C)C(O)C(OC)C1OC (stereo not shown) [Compound 64, 20-DH-20-O-Phenyl-2'-O-acetyltylosin]
[1]
  MIC: -- (Not active at 50 mcg/ml, the highest level tested)
[2]; agar dilution
  MIC: -- (Not active at 128 mcg/ml, the highest level tested)
[3]; [17]
  MIC: 2 µg/mL (≈ 1.93 µM)
Streptococcus Group 9960
  MIC: -- (Not active at 128 mcg/ml, the highest level tested)
[4]; [18]
  MIC: 2 µg/mL (≈ 1.93 µM)
[5]; [19]
  MIC: 2 µg/mL (≈ 1.93 µM)
[6]
  MIC: -- (Not active at 50 mcg/ml, the highest level tested)
[7]; [20]
  MIC: 4 µg/mL (≈ 3.86 µM)
Streptococcus bovis 80
  MIC: 12.5 µg/mL (≈ 12.1 µM)
[14]
  MIC: 2 µg/mL (≈ 1.93 µM)
[8]; agar dilution
  MIC: -- (Not active at 128 mcg/ml, the highest level tested)
[9]
  MIC: -- (Not active at 128 mcg/ml, the highest level tested)
Mycoplasma hyorhinis; Mycoplasma hyorhinis, broth-dilution microtiter
  MIC: 50 µg/mL (≈ 48.3 µM)
Mycoplasma gallisepticum; Mycoplasma gallisepticum, broth-dilution microtiter
  MIC: 1.56 µg/mL (≈ 1.51 µM)
Staphylococcus aureus
  MIC: 3.12 µg/mL (≈ 3.01 µM)
[10]
  MIC: -- (Not active at 50 mcg/ml, the highest level tested)
[12]; [22]
  MIC: 2 µg/mL (≈ 1.93 µM)
[13]; [23]
  MIC: 2 µg/mL (≈ 1.93 µM)

## CCC1OC(=O)CC(O)C(C)C(OC2OC(C)C(O)C(N(C)C)C2O)C(CCOCCc2ccccc2)CC(C)C(=O)C=CC(C)=CC1COC1OC(C)C(O)C(OC)C1OC (stereo not shown) [Compound 31, 20-DH-20-O-(Phenethyl)desmycosin]
[3]; Staphylococcus aureus, X1.1
  MIC: 0.25 µg/mL (≈ 0.285 µM)
Streptococcus Group 9960; GROUP9960, read-out: MIC
  MIC: 16 µg/mL (≈ 18.2 µM)
[4]; Staphylococcus aureus, V41
  MIC: 0.25 µg/mL (≈ 0.285 µM)
[5]; [16]
  MIC: 0.25 µg/mL (≈ 0.285 µM)
[7]; Staphylococcus aureus, X400
  MIC: 0.5 µg/mL (≈ 0.569 µM)
[14]; read-out: MIC
  MIC: 0.12 µg/mL (≈ 0.137 µM)
[9]; read-out: MIC
  MIC: 8 µg/mL (≈ 9.11 µM)
[15]; Streptococcus pneumoniae
  MIC: 0.25 µg/mL (≈ 0.285 µM)
[12]; Staphylococcus aureus, S13E
  MIC: 0.25 µg/mL (≈ 0.285 µM)
[13]; Streptococcus pyogenes, C203
  MIC: 1 µg/mL (≈ 1.14 µM)
